This note sets out measurements from PMC12395807, “Chemoreceptor family in plant-associated bacteria responds preferentially to the plant signal molecule glycerol 3-phosphate” (Genome Biology, 2025).

The target in experiment [1] is LBD of chemoreceptor R2 (WP_136157342.1) (Brenneria roseae, UniProt A0A2U1TV64, H128N/K136R). The class given is binding. Particulars: ITC, 20 °C, R2 LBD; Nb = no binding. The procedure:
(§1) Plasmids for the overexpression of the different proteins were transformed into E. coli BL21(DE3). The resulting strains were grown under continuous stirring (200 rpm) at 30 °C in 2-L Erlenmeyer flasks containing 500 mL of LB medium supplemented with 50 μg/mL kanamycin. At an OD660 of 0.5, protein expression was induced by the addition of 0.1 mM isopropyl β-D-1-thiogalactopyranoside. Growth was continued at 16 °C overnight prior to cell harvesting by centrifugation at 10,000 × g for 20 min. Cell pellets were resuspended in buffer A (Additional file 2: Table S4) and subsequently broken by French press treatment at 62.5 lb/in^2. After centrifugation at 20,000 × g for 30 min, the supernatants were loaded onto 5-mL HisTrap HP columns (Amersham Biosciences) equilibrated with buffer A, and the proteins were eluted with a linear gradient of buffer B (Additional file 2: Table S4). All proteins contain a hexa-histidine tag at the N-terminal extension (Additional file 2: Table S3) and were purified at 4 °C. The purified proteins were dialyzed overnight into the corresponding analysis buffers (Additional file 2: Table S4) for immediate analysis.
All experiments were conducted on a VP microcalorimeter (Microcal, MA) at 15 °C for PacP-LBD and at 20 °C for the remaining proteins. Proteins were dialyzed into the analysis buffers specified in Additional file 2: Table S4, placed into the sample cell and titrated with aliquots of ligand solutions (1 to 10 mM) freshly prepared in dialysis buffer. The mean enthalpies measured from the injection of the ligands into the analysis buffer were subtracted from the raw titration data prior to data analysis with the MicroCal version of ORIGIN. The data were fitted with the “One binding site model” of ORIGIN.

Experiment [2] deals with PacP-LBD mutant (Y86, H100, R105, Y121, K148 and Y167 replaced by alanine). Put plainly: ITC binding to PacP-LBD binding site motif mutant. Details: species or system Pectobacterium atrosepticum. Particulars: 36 μM PacP-LBD alanine mutant; 1 mM glycerol 3-phosphate, 2.5 mM glyceraldehyde 3-phosphate. The procedure: as §1, with “The purified proteins were dialyzed overnight into the corresponding analysis buffers (Additional file 2: Table S4) for immediate analysis.” left out
All experiments were conducted on a VP microcalorimeter (Microcal, MA) at 15 °C for PacP-LBD and at 20 °C for the remaining proteins. […] The mean enthalpies measured from the injection of the ligands into the analysis buffer were subtracted from the raw titration data prior to data analysis with the MicroCal version of ORIGIN. […]

Another experiment deals with R2 LBD (WP_136157342.1). Put plainly: Thermal shift ligand screening of R2. The class given is binding, Brenneria roseae. Particulars: thermal shift assay, R2, arrays PM1, PM2A, PM3B, PM4A. The procedure:
(§2) Assays were carried out on a MyIQ2 Real-Time PCR instrument (Bio-Rad, Hercules, CA, USA). Ligand solutions were prepared by dissolving the array compounds in 50 µL of Milli-Q water, which, according to the manufacturer, corresponds to a concentration of 10–20 mM. Freshly purified proteins were dialyzed into analysis buffer (Additional file 2: Table S4). Compound arrays PM1, PM2A (carbon sources), PM3B (nitrogen sources), and PM4A (phosphorus and sulfur sources) from Biolog (https://www.biolog.com/) were used. The compositions of these arrays are provided in Additional file 2: Table S1. The experiments were conducted in 96-well plates, and each assay mixture contained 20 µL of the dialyzed protein (at 80–50 µM), 2 µL of 5 × SYPRO orange (Life Technologies, Eugene, Oregon, USA), and 2.5 µL of the resuspended array compound or the equivalent amount of buffer in the ligand-free control. The samples were heated from 23 to 85 °C at a scan rate of 1 °C/min. The protein unfolding curves were monitored by detecting changes in SYPRO® Orange fluorescence. The Tm values were determined from the first derivative values of the raw fluorescence data.

For the next experiment, the system named is R3 LBD (WP_006464688.1). Put plainly: Thermal shift ligand screening of R3. The experiment is classed as binding, Herbaspirillum frisingense. Particulars: thermal shift assay, R3, arrays PM1, PM2A, PM3B, PM4A. The procedure:
as §2

Another experiment has as its system R4 LBD (WP_158281851.1). Put plainly: Thermal shift ligand screening of R4. The class given is binding, Rivicola pingtungensis. Particulars: thermal shift assay, R4, arrays PM1, PM2A, PM3B, PM4A. The procedure:
as §2

The test system of experiment [3] is Pectobacterium atrosepticum SCRI1043. Put plainly: Growth experiment, sole carbon source. The class given is cell-based. Particulars: PFM9 minimal medium, 5 mM ligand, 30 °C, 48 h. How it is done:
P. atrosepticum SCRI1043 was cultured overnight in phosphate-free M9-based medium (PFM9) supplemented with 20 mM glucose as the carbon source and 500 µM inorganic phosphate as the phosphate source. Cultures were washed and then diluted to an OD600 of 0.02 in PFM9 supplemented with different PacP ligands as the sole carbon or phosphorous source at a final concentration of 5 mM. Subsequently, 200 µL aliquots of these cultures were transferred into microwell plates, which were subsequently grown at 30 °C on a Bioscreen microbiological growth analyzer (Oy Growth Curves Ab Ltd., Helsinki, Finland) for 48 h.

Sequence of LBD of chemoreceptor R2 (WP_136157342.1) (A0A2U1TV64 28-178 H128N/K136R): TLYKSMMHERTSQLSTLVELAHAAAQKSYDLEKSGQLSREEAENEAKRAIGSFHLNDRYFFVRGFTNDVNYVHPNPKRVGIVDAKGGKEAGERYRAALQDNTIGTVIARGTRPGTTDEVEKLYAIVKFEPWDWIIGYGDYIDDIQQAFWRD

Turning to `O=P(O)(O)OCC(O)CO` (stereo not drawn) [glycerol 3-phosphate], the KD result in experiment [1] is on record as “showed binding”. For the same molecule, in experiment [2], the “binding in microcalorimetric titration” value was “absence of binding”. Moreover, the Tm change result in the experiment on R2 LBD (WP_136157342.1) is listed as “increases in the Tm”; with R3 LBD (WP_006464688.1) it was “significant increases in the Tm”; in the experiment on R4 LBD (WP_158281851.1), “significant increases in the Tm”. Further, in experiment [3], the “growth as sole carbon source” value is listed as “supported growth”.
